Measurements: ChEMBL document CHEMBL1201862, “PubChem BioAssay data set” (2004)
Activity calls are given as the source filed them.

Experiments:
[1] = molecular target: T1, Alkaline phosphatase, tissue-nonspecific isozyme (Homo sapiens, UniProt P05186); assay: potency against alkaline phosphatase TNAP – biochemical, luminescent, dose response, SAR follow-up (AID 1056)
T1 sequence (P05186 whole entry): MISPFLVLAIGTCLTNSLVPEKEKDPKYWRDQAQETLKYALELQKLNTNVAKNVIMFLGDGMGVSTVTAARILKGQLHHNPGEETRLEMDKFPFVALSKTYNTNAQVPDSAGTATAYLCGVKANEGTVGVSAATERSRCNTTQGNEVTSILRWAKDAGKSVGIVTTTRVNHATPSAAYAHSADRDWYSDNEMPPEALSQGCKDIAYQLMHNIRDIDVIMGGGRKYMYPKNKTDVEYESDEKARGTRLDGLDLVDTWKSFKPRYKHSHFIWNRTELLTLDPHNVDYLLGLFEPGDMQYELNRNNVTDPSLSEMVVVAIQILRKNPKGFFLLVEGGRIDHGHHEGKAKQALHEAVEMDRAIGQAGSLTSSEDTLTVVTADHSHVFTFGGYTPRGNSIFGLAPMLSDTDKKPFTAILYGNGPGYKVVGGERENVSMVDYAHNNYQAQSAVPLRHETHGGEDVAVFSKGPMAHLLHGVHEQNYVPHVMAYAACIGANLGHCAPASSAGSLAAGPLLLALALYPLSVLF

[2] = molecular target: Glyceraldehyde-3-phosphate dehydrogenase (Homo sapiens, UniProt P04406)
Glyceraldehyde-3-phosphate dehydrogenase, sequence (P04406 whole entry): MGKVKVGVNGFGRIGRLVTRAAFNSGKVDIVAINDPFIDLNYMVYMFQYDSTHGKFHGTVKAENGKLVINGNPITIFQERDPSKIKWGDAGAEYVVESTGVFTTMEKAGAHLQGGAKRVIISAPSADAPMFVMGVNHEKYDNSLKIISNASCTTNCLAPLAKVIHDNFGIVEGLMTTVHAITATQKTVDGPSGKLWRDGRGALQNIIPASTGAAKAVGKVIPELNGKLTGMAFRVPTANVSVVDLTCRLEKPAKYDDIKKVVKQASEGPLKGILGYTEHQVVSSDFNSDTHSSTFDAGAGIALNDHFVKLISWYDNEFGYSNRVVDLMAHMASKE

[3] = non-specific 3'UTR reporter inhibition in Clone20-Shn3RL – cell-based, Renilla luciferase, cherry-picked, counter-screen for Shn3 inhibitor project, dose response (AID 624133); format: functional
[4] = loss of viability in HepG2 cells – cell-based, CellTiter-Glo, cherry-picked, cytotoxicity control for Shn3 inhibitor project, dose response (AID 624134); format: functional
[5] = Luminescence Cell-Based Dose Retest to Confirm Inhibitors of Cancer Stem Cells. [Related pubchem assays (depositor defined):AID2717, AID2721]; format: functional; settings: Homo sapiens
Nonstructural protein 1 = Nonstructural protein 1 (Influenza A virus, UniProt Q194T2); format: functional, Influenza A virus (A/California/07/2009(H1N1))
Nonstructural protein 1, sequence (Q194T2 whole entry): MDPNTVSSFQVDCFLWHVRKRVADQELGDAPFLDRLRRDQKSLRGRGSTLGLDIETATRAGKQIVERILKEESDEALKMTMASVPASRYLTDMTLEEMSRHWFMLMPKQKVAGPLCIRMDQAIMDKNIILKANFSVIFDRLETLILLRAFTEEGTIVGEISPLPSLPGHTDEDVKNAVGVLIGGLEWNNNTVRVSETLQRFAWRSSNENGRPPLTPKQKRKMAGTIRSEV

INS1 = assay: INS-1E survival protection against cytokine death – cell-based, luminescence, retest, dose response (AID 449756); format: functional; settings: Rattus norvegicus;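 further: cell death triggered by IL-1 beta plus TNF-alpha plus IFN-gamma mixture; protective hits raise ATP signal compared with cytokine alone wells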
[6] = reduction of Shn3 3'UTR-driven luciferase in osteoblasts – cell-based, Clone20 osteoblasts, firefly luciferase, cherry-picked, dose response (AID 624132); format: functional;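 further: firefly luciferase luminescence from reporter carrying the Shn3 3'UTR in osteoblasts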
[7] = HEK-293T viability loss after treatment – luminescence, T-cell screen hits, cytotoxicity control for TCR NF-kB inhibitor project, dose response (AID 489026); format: functional, cell-based;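 further: cells exposed to compound about 14 hours before the viability readout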
[8] = molecular target: T2, High affinity choline transporter 1 (Homo sapiens, UniProt Q9GZV3); assay: human choline transporter blockers, potency – cell-based, 5-point CRC, membrane potential dye, dose response (AID 504840); format: functional
T2 sequence (Q9GZV3 whole entry): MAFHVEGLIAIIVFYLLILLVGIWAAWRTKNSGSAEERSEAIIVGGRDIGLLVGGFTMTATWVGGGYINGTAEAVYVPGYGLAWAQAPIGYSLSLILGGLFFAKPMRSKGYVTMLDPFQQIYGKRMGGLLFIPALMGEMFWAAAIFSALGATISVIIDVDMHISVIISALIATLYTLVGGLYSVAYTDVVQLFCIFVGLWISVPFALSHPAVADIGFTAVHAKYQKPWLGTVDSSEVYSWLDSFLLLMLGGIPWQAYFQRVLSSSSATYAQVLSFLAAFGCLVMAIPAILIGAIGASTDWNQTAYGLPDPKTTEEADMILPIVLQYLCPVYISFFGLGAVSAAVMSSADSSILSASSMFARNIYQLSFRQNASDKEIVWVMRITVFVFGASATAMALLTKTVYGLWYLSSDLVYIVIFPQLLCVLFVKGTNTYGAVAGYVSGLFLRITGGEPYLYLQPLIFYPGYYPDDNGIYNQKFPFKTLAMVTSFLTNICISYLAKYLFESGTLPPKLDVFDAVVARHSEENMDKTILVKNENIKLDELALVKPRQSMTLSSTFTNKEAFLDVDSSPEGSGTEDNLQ

[9] = molecular target: T3, Zinc finger protein mex-5 (Caenorhabditis elegans, UniProt Q9XUB2); assay: potency of MEX-5 RNA-binding blockers – biochemical, C. elegans, fluorescence polarization, dose response (AID 1960)
T3 sequence (Q9XUB2 whole entry): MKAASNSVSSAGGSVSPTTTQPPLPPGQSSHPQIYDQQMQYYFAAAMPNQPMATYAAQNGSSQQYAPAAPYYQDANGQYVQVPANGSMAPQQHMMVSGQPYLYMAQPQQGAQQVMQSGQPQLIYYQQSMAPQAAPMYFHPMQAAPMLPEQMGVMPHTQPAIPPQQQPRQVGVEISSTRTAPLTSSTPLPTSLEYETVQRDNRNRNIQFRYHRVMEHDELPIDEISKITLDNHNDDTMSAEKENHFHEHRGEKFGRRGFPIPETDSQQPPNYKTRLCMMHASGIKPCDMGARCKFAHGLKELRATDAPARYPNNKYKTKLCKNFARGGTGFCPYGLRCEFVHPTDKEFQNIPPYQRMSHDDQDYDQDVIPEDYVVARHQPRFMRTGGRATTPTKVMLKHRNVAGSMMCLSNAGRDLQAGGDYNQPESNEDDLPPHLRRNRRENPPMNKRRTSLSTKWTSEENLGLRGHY

[10] = molecular target: T4, Endoribonuclease toxin MazF (Escherichia coli K-12, UniProt P0AE70); assay: activation of MazEF endoribonuclease cleavage – biochemical, fluorescence, single-stranded RNA substrate, uHTS hits, dose response (AID 588481); format: functional
T4 sequence (P0AE70 whole entry): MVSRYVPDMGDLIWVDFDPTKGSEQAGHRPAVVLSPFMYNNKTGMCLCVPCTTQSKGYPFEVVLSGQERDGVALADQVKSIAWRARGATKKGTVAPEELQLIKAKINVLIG

[11] = molecular target: T4, Endoribonuclease toxin MazF; assay: substrate-only fluorescence increase artefacts – biochemical, single-stranded RNase substrate, counter-screen for MazEF activator project, dose response (AID 588502); format: functional
[12] = molecular target: T5, RNA-binding protein pos-1 (Caenorhabditis elegans, UniProt G5EF15); assay: disruptors of C. elegans POS-1 RNA interaction – biochemical, fluorescence polarization, dose response (AID 1964);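 further: purified POS-1 fused to maltose binding protein made in E. coli; potency of compounds blocking POS-1 binding to fluorescent RNA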
T5 sequence (G5EF15 whole entry): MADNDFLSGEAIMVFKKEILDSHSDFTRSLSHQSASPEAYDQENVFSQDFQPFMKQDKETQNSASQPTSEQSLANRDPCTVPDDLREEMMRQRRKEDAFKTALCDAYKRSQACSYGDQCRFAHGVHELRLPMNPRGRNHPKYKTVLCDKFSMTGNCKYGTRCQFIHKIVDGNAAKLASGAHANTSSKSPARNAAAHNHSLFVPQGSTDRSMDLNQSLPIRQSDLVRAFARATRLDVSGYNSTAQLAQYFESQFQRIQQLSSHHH

[13] = HEK-293T cell viability reduction – luminescence, B-cell screen hits, cytotoxicity control for BCR NF-kB inhibitor project, dose response (AID 489021); format: functional, cell-based;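 further: HEK-293T cells carrying an NF-kB luciferase reporter; cells exposed to compound for about 14 hours before viability readout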
[14] = Vero E6 cell cytotoxicity, dose response, cytotoxicity control for non-replicating M. tuberculosis project, secondary assay (AID 492998); format: functional, VeroE6; settings: Vero C1008
[15] = HepG2 cell cytotoxicity, dose response, cytotoxicity control for non-replicating M. tuberculosis project (AID 489018); format: functional; settings: Mycobacterium tuberculosis
cells [16] = format: functional
[17] = THP-1 cell cytotoxicity, dose response, cytotoxicity control for non-replicating M. tuberculosis project (AID 489025); format: functional
BJ [18] = assay: cells; format: functional, cell-based; settings: Homo sapiens
[19] = DRD fibroblast viability loss – cell-based, non-viral oncogenic, luminescence, dose response (AID 1934); format: functional; settings: Homo sapiens
BJ [20] = assay: BJ-TERT-LT-ST fibroblast viability loss – cell-based, RAS-independent, luminescence, dose response (AID 1935); format: functional; settings: Homo sapiens;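 further: BJ fibroblasts immortalized with TERT plus LT and ST oncogenes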
BJ [21] = assay: BJ-TERT fibroblast viability loss – cell-based, RAS-independent, luminescence, dose response (AID 1933); format: functional; settings: Homo sapiens
cells [22] = format: functional, cell-based
HEK293 = assay: EBV LMP1 TES2 canonical NF-kB signalling blockers – cell-based, HEK293, luciferase, cherry-pick, dose response (AID 588343); format: functional; settings: Homo sapiens
[23] = system: Streptococcus sp. 'group A'; assay: Streptococcus pyogenes SK(-)GAS viability under kanamycin – luminescence, BacTiterGlo, confirmation, counter-screen for streptokinase expression inhibitor project, dose response (AID 1900); format: functional, organism-based
Streptokinase A = molecular target: T6, Streptokinase A (Streptococcus pyogenes serotype M1, UniProt P10520); assay: viability-normalized secreted streptokinase activity reduction – plasminogen activation absorbance, OD405, dose response (AID 1914); format: functional, Streptococcus pyogenes M1 GAS;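 further: secreted streptokinase activity via plasminogen activation per viability signal from cell pellet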
T6 sequence (P10520 whole entry): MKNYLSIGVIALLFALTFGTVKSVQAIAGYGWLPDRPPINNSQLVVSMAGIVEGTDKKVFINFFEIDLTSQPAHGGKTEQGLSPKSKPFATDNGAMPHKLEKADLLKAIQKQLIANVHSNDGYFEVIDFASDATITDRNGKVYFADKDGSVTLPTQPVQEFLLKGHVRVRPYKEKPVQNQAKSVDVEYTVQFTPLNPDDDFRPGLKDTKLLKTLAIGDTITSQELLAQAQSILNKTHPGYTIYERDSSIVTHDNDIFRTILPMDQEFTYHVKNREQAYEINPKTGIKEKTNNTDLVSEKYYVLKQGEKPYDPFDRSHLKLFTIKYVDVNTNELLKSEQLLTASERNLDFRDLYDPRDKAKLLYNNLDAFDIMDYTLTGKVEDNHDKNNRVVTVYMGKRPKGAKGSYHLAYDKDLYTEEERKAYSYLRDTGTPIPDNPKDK

Streptococcus = assay: GAS UMAA2166 growth inhibition – luminescence, BacTiterGlo, counter-screen for streptokinase expression inhibitor project, dose response (AID 1915); format: functional, organism-based;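 further: potency for reduction of bacterial viability or growth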
cells [24] = format: functional, cell-based; remark: listed apart in the source

CCOc1ccc(S(=O)(=O)Nc2nc3ccccc3nc2Cl)cc1
IC50 [1]: > 100 µM (inactive) | IC50 [2]: > 100 µM (not active)

Cc1ccnc2c1ccc1c(C)ccnc12
AC50 [3]: > 70 µM (inactive) | AC50 [4]: > 70 µM (inactive) | AC50 [5]: 1.54 µM (active) | IC50 (Nonstructural protein 1): 0.472 µM (active) | AC50 (INS1): 1.92 µM (active) | AC50 [6]: 0.857 µM (active) | IC50 [7]: > 80 µM (inactive)

Cn1nc(C(=O)O)cc1-c1ccc(F)cc1
IC50 [1]: > 100 µM (inactive) | IC50 [2]: > 100 µM (not active)

CC(C)(C)C(=O)Oc1cccc(Nc2ncnc3ccccc23)c1
IC50 [8]: 13.8 µM (active)

CCOc1cccc(C2C(C(=O)c3ccc(C)o3)=C(O)C(=O)N2c2nccs2)c1 (stereo not given)
EC50 [9]: 1.27 µM (active) | EC50 [10]: 16.9 µM (active) | EC50 [11]: > 99 µM (inactive) | EC50 [12]: 1.41 µM (inconclusive)

C=CCN1C(=O)NC(=O)/C(=C(/CC)NC(C)c2ccccc2)C1=O (stereo not given)
IC50 [8]: 1.91 µM (active) | IC50 [13]: > 80 µM (inactive)

Cc1n[nH]c(C)c1CCCCOc1ccccc1[N+](=O)[O-]
IC50 [8]: 12.6 µM (active)

Cc1cc(S(=O)(=O)c2ccc([N+](=O)[O-])cn2)ccc1Br
CC50 [14]: 13.6 µM (active) | AC50 [3]: 17.5 µM (active) | CC50 [15]: 18 µM (active) | AC50 [4]: 21.4 µM (active) | AC50 [5]: 1.86 µM (active) | IC50 (cells [16]): 0.68 µM (active) | CC50 [17]: 12.2 µM (active) | EC50 (BJ [18]): 17.6 µM (active) | AC50 [6]: 3.69 µM (active) | EC50 [19]: 6.93 µM (inconclusive) | EC50 (BJ [20]): 17 µM (active) | EC50 (BJ [21]): 3.26 µM (active)

CCCCOc1ccc(OCCCC)c2c1NC1(N2)C(=O)N(C(C)=O)c2ccccc21
EC50 [10]: > 99 µM (inactive) | EC50 [11]: > 99 µM (inactive)

Cn1nc(C(F)(F)F)c(-c2ccccc2)c1NC(=O)c1cccnc1
IC50 [8]: 13.2 µM (active)

COc1ccc(S(=O)(=O)Nc2cnc3ccccc3c2)c(OC)c1
IC50 [1]: 19.5 µM (active) | IC50 [2]: > 100 µM (not active)

c1ccc(CN2CCN=C2c2cccnc2)cc1
IC50 [1]: > 100 µM (inactive) | IC50 [2]: > 100 µM (not active)

CCCc1cc(C(=O)N/N=C/c2ccc(CC)s2)c2ccccc2n1
IC50 [7]: > 80 µM (inactive)

CCCCNC(=O)/C(C#N)=c1\s/c(=C\c2ccccc2OC(F)F)c(=O)n1CCCOC
EC50 [10]: > 99 µM (inactive) | EC50 [11]: 88.5 µM (inactive)

CN(C)c1ccc(/C=N/NC(=O)c2cnc3ccccc3c2)cc1
EC50 [10]: > 99 µM (inactive) | EC50 [11]: 26.4 µM (inactive)

CCOc1cccc(/C=N/Nc2ccc(S(=O)(=O)N(CC)CC)cn2)c1O
EC50 (cells [22]): > 350 µM (not active) | AC50 (HEK293): 4.85 µM (active) | EC50 [23]: 6.87 µM (active) | EC50 (Streptokinase A): > 150 µM (not active) | EC50 (Streptococcus): 9.29 µM (active) | EC50 (BJ [18]): 4.12 µM (active) | AC50 (INS1): 1.12 µM (active) | IC50 [7]: > 80 µM (inactive) | EC50 (cells [24]): 49.6 µM (active) | EC50 [19]: 3.94 µM (active) | EC50 (BJ [20]): 7.7 µM (active) | EC50 (BJ [21]): 2.86 µM (active)
